Test results: patent publication US7371207B2 (Wyeth, priority 2002, dated 2008)

Test system: gene expression in the kidney
Assay: GeneChip microarray survey of E2 regulated gene expression, kidney
Protocol: FIG. 1 depicts a pattern analysis generated by a GeneChip microarray analysis. […] Two hours following the final dose, the mice were euthanized and 13 tissues removed for RNA preparation. Two independent studies were performed, with total RNA pooled from two groups of three animals for each condition. Gene expression was quantified by GeneChip microarrays using murine U74 sub A arrays. Data were analyzed for patterns indicating either ERα or ERβ dependent regulation as shown. […] The number of genes in each tissue that matched the theoretical induction (↑) or repression (↓) patterns for ERα or ERβ are indicated.
FIGS. 2A-2C show a series of bar graphs showing gene expression levels of known genes regulated in the kidney in an ERα pattern. […] Expression was measured in two independent sets of animals, with two groups of animals for each treatment in each study. A gene name abbreviation is shown above each graph, with the corresponding Unigene designation shown below.
One week later, the animals were ovariectomized.
GeneChip—Total RNA was prepared separately from each individual organ by using Trizol (Invitrogen) followed by subsequent repurification on Rneasy columns (Qiagen). In general, two pools of RNA were created using equal amounts of RNA from three mice. For small organs such as pituitary, an equal amount of RNA from six animals was combined.
Target Preparation and Array Hybridization—Total RNA was used to generate biotin labeled cRNA target as described (8) which was hybridized to the murine MG_U74Av2 probe arrays (Affymetrix, Santa Clara, Calif.) for 16 h at 45° C. Eleven biotin-labeled cRNAs at defined concentration were spiked into each hybridization and used to convert average difference values to frequencies expressed as parts per million.
The resulting data set was queried for genes whose regulation was dependent on ERα or ERβ.

C[C@]12CC[C@@H]3c4ccc(O)cc4CC[C@H]3[C@@H]1CC[C@@H]2O [E2, 17β-estradiol]
E2 Expr (/evansm/Kidney, mouse/Study 1, U74v2/WT E2 kidney (81036)) (101979_at, AF055638, growth arrest and DNA-damage-inducible 45 gamma): 42
E2 Expr (/evansm/Kidney, mouse/Study 1, U74v2/WT E2 kidney (81036)) (102693_f_at, J00389, kallikrein 13, kallikrein 26): 86
E2 Expr (/evansm/Kidney, mouse/Study 1, U74v2/WT E2 kidney (81036)) (102788_s_at, U70132, paired-like homeodomain transcription factor 2): 23
E2 Expr (/evansm/Kidney, mouse/Study 1, U74v2/WT E2 kidney (81036)) (103048_at, M12731, neuroblastoma myc-related oncogene 1): 39
E2 Expr (/evansm/Kidney, mouse/Study 1, U74v2/WT E2 kidney (81036)) (103556_at, AI840158, angiopoletin-like 2): 24
E2 Expr (/evansm/Kidney, mouse/Study 1, U74v2/WT E2 kidney (81036)) (103729_at, M36775, laminin, alpha 1): 17
E2 Expr (/evansm/Kidney, mouse/Study 1, U74v2/WT E2 kidney (81036)) (103739_at, AW230977, RIKEN cDNA 1110017N23 gene): 33
E2 Expr (/evansm/Kidney, mouse/Study 1, U74v2/WT E2 kidney (81036)) (104221_at, AB017189, solute carrier family 7 (cationic amino acid transporter, y+ system), member 5): 61
E2 Expr (/evansm/Kidney, mouse/Study 1, U74v2/WT E2 kidney (81036)) (104477_at, AW047643, Mm.29940): 15
E2 Expr (/evansm/Kidney, mouse/Study 1, U74v2/WT E2 kidney (81036)) (104495_f_at, Y00500, kallikrein 5): 115
E2 Expr (/evansm/Kidney, mouse/Study 1, U74v2/WT E2 kidney (81036)) (104497_f_at, X03994, kallikrein 8): 53
E2 Expr (/evansm/Kidney, mouse/Study 1, U74v2/WT E2 kidney (81036)) (104550_at, AW123273, ?CYP2S1 Cytochrome P450): 22
E2 Expr (/evansm/Kidney, mouse/Study 1, U74v2/WT E2 kidney (81036)) (104776_at, AA600617, Mm.33238): 4
E2 Expr (/evansm/Kidney, mouse/Study 1, U74v2/WT E2 kidney (81036)) (104880_at, AI843154, Mm.33730): 2
E2 Expr (/evansm/Kidney, mouse/Study 1, U74v2/WT E2 kidney (81036)) (105737_at, AI851277, Mm.39735): 8
E2 Expr (/evansm/Kidney, mouse/Study 1, U74v2/WT E2 kidney (81036)) (106195_at, AI851948, Mm.22808): 8
E2 Expr (/evansm/Kidney, mouse/Study 1, U74v2/WT E2 kidney (81036)) (107993_at, AI847249, Mm.27680): 9
E2 Expr (/evansm/Kidney, mouse/Study 1, U74v2/WT E2 kidney (81036)) (108265_at, AW120464, Mm.54158): 12
E2 Expr (/evansm/Kidney, mouse/Study 1, U74v2/WT E2 kidney (81036)) (108749_at, AA611885, Mm.23047): 34
E2 Expr (/evansm/Kidney, mouse/Study 1, U74v2/WT E2 kidney (81036)) (108851_at, AW125899, Ras-like protein): 10
E2 Expr (/evansm/Kidney, mouse/Study 1, U74v2/WT E2 kidney (81036)) (109176_at, AI846059, RAI17 Retinoic acid Induced 17): 79
E2 Expr (/evansm/Kidney, mouse/Study 1, U74v2/WT E2 kidney (81036)) (110591_at, AA270831, SH3 domain protien D19): 23
E2 Expr (/evansm/Kidney, mouse/Study 1, U74v2/WT E2 kidney (81036)) (110767_r_at, AA959550, vascular endothelial growth factor): 37
E2 Expr (/evansm/Kidney, mouse/Study 1, U74v2/WT E2 kidney (81036)) (110850_at, AA959574, NRIP1 Nuclear receptor interacting protein 1, RIP140): 76
E2 Expr (/evansm/Kidney, mouse/Study 1, U74v2/WT E2 kidney (81036)) (111046_r_at, AI957367, 17b dehydrogenase A homolog): 17
E2 Expr (/evansm/Kidney, mouse/Study 1, U74v2/WT E2 kidney (81036)) (113125_at, AI851671, signal transducer and activator of transcription 5B): 31
E2 Expr (/evansm/Kidney, mouse/Study 1, U74v2/WT E2 kidney (81036)) (114903_at, AI447633, Mm.26357): 96
E2 Expr (/evansm/Kidney, mouse/Study 1, U74v2/WT E2 kidney (81036)) (116273_at, AW123862, Mm.31953): 7
E2 Expr (/evansm/Kidney, mouse/Study 1, U74v2/WT E2 kidney (81036)) (117208_at, AI838208, RIKEN cDNA 1110003O08 gene): 37
E2 Expr (/evansm/Kidney, mouse/Study 1, U74v2/WT E2 kidney (81036)) (129147_r_at, AI931796, similar to TYROSINE-PROTEIN KINASE RECEPTOR TIE-1 PRECURSOR): 6
E2 Expr (/evansm/Kidney, mouse/Study 1, U74v2/WT E2 kidney (81036)) (131149_at, AW214502, RIKEN cDNA 5033417D07 gene): 7
E2 Expr (/evansm/Kidney, mouse/Study 1, U74v2/WT E2 kidney (81036)) (131226_at, AI842542, Mm.23157): 8
E2 Expr (/evansm/Kidney, mouse/Study 1, U74v2/WT E2 kidney (81036)) (132403_at, AI788603, similar to TSC1_RAT HAMARTIN (TUBEROUS SCLEROSIS 1 PROTEIN HOMOLOG)): 19
E2 Expr (/evansm/Kidney, mouse/Study 1, U74v2/WT E2 kidney (81036)) (133139_at, AW122295, regulator of G-protein signaling 4): 4
E2 Expr (/evansm/Kidney, mouse/Study 1, U74v2/WT E2 kidney (81036)) (133672_at, AI451032, Mm.32389): 11
E2 Expr (/evansm/Kidney, mouse/Study 1, U74v2/WT E2 kidney (81036)) (134303_at, AI553493, Mm.35319): 11
E2 Expr (/evansm/Kidney, mouse/Study 1, U74v2/WT E2 kidney (81036)) (136270_at, AI854101, Highly similar to CRFB MOUSE CORTICOTROPIN-RELEASING FACTOR BINDING PROTEIN PRECURSOR): 12
E2 Expr (/evansm/Kidney, mouse/Study 1, U74v2/WT E2 kidney (81036)) (137525_at, AI098139, Mm.38027): 4
E2 Expr (/evansm/Kidney, mouse/Study 1, U74v2/WT E2 kidney (81036)) (139531_at, AW120795, Mm.45188): 40
E2 Expr (/evansm/Kidney, mouse/Study 1, U74v2/WT E2 kidney (81036)) (162645_at, AI851427, protein kinase, cAMP dependent regulatory, type II beta): 11
E2 Expr (/evansm/Kidney, mouse/Study 1, U74v2/WT E2 kidney (81036)) (162964_at, AI854153, regulator of G-protein signaling 4): 11
E2 Expr (/evansm/Kidney, mouse/Study 1, U74v2/WT E2 kidney (81036)) (162969_at, AW123298, Edil3 EGF-like repeats and discordin I-like domains 3): 34
E2 Expr (/evansm/Kidney, mouse/Study 1, U74v2/WT E2 kidney (81036)) (162976_at, AI838662, RIKEN cDNA 2700007F12 gene): 10
E2 Expr (/evansm/Kidney, mouse/Study 1, U74v2/WT E2 kidney (81036)) (163186_at, AI852882, RIKEN cDNA 2610510B01 gene): 61
E2 Expr (/evansm/Kidney, mouse/Study 1, U74v2/WT E2 kidney (81036)) (163224_at, AI843147, IGSF1 Immunoglobulin superfamily, member 1): 27
E2 Expr (/evansm/Kidney, mouse/Study 1, U74v2/WT E2 kidney (81036)) (163370_at, AI591488, Osbpl3 Oxysterol binding protien-like 3): 10
E2 Expr (/evansm/Kidney, mouse/Study 1, U74v2/WT E2 kidney (81036)) (163941_at, AI646761, RIKEN cDNA 1110018J23 gene): 71
E2 Expr (/evansm/Kidney, mouse/Study 1, U74v2/WT E2 kidney (81036)) (164051_at, AV359458, Mm.17850): 195
E2 Expr (/evansm/Kidney, mouse/Study 1, U74v2/WT E2 kidney (81036)) (164520_f_at, AV302474, Tmprss2 Transmembrane protease, serine 2): 6
E2 Expr (/evansm/Kidney, mouse/Study 1, U74v2/WT E2 kidney (81036)) (165032_i_at, AV365688, RIKEN cDNA 4933429H19 gene): 42
E2 Expr (/evansm/Kidney, mouse/Study 1, U74v2/WT E2 kidney (81036)) (165248_f_at, AV035328, placental lactogen 2): 38
E2 Expr (/evansm/Kidney, mouse/Study 1, U74v2/WT E2 kidney (81036)) (165569_at, AI847273, Mm.22305): 5
E2 Expr (/evansm/Kidney, mouse/Study 1, U74v2/WT E2 kidney (81036)) (165678_i_at, AI482191, Mm.33178): 11
E2 Expr (/evansm/Kidney, mouse/Study 1, U74v2/WT E2 kidney (81036)) (165710_at, AA815844, sodium channel, nonvoltage-gated 1 gamma): 9
E2 Expr (/evansm/Kidney, mouse/Study 1, U74v2/WT E2 kidney (81036)) (165772_at, AI851899, RIKEN cDNA 0610039J01 gene): 29
E2 Expr (/evansm/Kidney, mouse/Study 1, U74v2/WT E2 kidney (81036)) (165866_f_at, AV291803, ribosomal protein L12): 40
E2 Expr (/evansm/Kidney, mouse/Study 1, U74v2/WT E2 kidney (81036)) (166021_at, AI481830, Mm.49448): 12
E2 Expr (/evansm/Kidney, mouse/Study 1, U74v2/WT E2 kidney (81036)) (166843_at, AI851523, Mm.200318): 174
E2 Expr (/evansm/Kidney, mouse/Study 1, U74v2/WT E2 kidney (81036)) (166849_at, AI853080, Mm.40718): 16
E2 Expr (/evansm/Kidney, mouse/Study 1, U74v2/WT E2 kidney (81036)) (167023_f_at, AV016619, biglycan): 3
E2 Expr (/evansm/Kidney, mouse/Study 1, U74v2/WT E2 kidney (81036)) (168876_f_at, AV044014, kallikrein 21): 75
E2 Expr (/evansm/Kidney, mouse/Study 1, U74v2/WT E2 kidney (81036)) (169068_i_at, AV206066, RIKEN cDNA 4930434J08 gene): 2
E2 Expr (/evansm/Kidney, mouse/Study 1, U74v2/WT E2 kidney (81036)) (170686_f_at, AV362687, Mm.89845): 58
E2 Expr (/evansm/Kidney, mouse/Study 1, U74v2/WT E2 kidney (81036)) (170896_at, AV066592, Immune associated nucleotide 4): 3
E2 Expr (/evansm/Kidney, mouse/Study 1, U74v2/WT E2 kidney (81036)) (171390_i_at, AV299689, Mm.21070): 3
ABCC3 expression in kidney (mRNA level): induced mRNA levels
NTT73 expression in kidney (mRNA level): increased mRNA levels
CIS2 expression in kidney (mouse, in vivo): induction
COR1 (RDC1) expression in kidney (mouse, in vivo): induced expression
CYP27B1 expression in kidney (mouse, in vivo): induction
ELF3 expression in kidney (mouse, in vivo): induced expression
GNBP3 expression in kidney (mouse, in vivo): induced expression
PHD2 expression in kidney (mouse, in vivo): induced expression
RGS3 expression in kidney (mouse, in vivo): induced expression
STAT5A expression in kidney (mouse, in vivo): induced expression
STAT5B expression in kidney (mouse, in vivo): induced expression
